Experiments:
[1] = test system: human embryonic stem cell line H1; assay: Culture in test media: growth and colony morphology (phase-contrast); type: cell-based; settings: Example 5
Procedure: Cells of the human embryonic stem cell line H1 (at passage 35 to passage 40), cultured on MATRIGEL™ (Catalog No. 354230, 1:30 dilution; Corning Incorporated, Corning, N.Y.) coated dishes in mTeSR®1 media (Catalog No. 05850, Stem-Cell Technologies, Inc., Vancouver BC, Canada) and passaged using ethylenediaminetetraacetic acid (“EDTA”), were used as the starting population to test various media compositions. Cells were passaged as small colonies using 5-10 min EDTA (Catalog No. #170711E, Lonza Walkersville, Inc., Walkersville, Md.) treatment at room temperature. Cultures were routinely split in a ratio of 1:6 to 1:10 at each passage. Table I lists the initial media formulations tested for their ability to proliferate H1 cells while maintaining their undifferentiated morphology and pluripotency markers.
Media IH-1, IH-3, and IH-6 were selected for further evaluation.

[2] = test system: human embryonic stem cell line H1; assay: Real-time PCR of pluripotency and differentiation genes; type: cell-based; settings: passage 3, Example 5
Description: After passage 5, only IH-1 and IH-3 were further compared to the cells cultured in mTeSR®1 media (Catalog No. 05850, Stem-Cell Technologies, Inc., Vancouver BC, Canada). […]
Approximately 1% of the cells were SOX17+ (FIG. 7D) and ˜85% of the cells were FOXA2+ (FIG. 7E). FIG. 8A to FIG. 8F show images of immunofluorescence staining of H1 cells cultured in IH-3 media for 18 passages. These images illustrate that a significant number of OCT4 and SOX2 positive cells were also FOXA2+. H1 cells cultured in IH3 media had acquired a phenotype where at least 70% of the cells were OCT4+ NANOG+ SOX2+ KI-67+ ZFP42− and FOXA2+. This represents a population of cells not yet described in the art.

[3] = day 4 following seeding, IH-3-2 media with the given BSA
[4] = passage 3, IH-3-2 media with the given BSA

Row | Substance | Cell morphology [1, 3] | Cell morphology [1, 4] | Markers associated with a differentiated cell (AFP, MIXL1, T (BRY); PCR) [2] | Confluency of cells ([1]; passage 3, compared to fatty acid free BSA)
1 | fatty acid-free BSA: fatty-acid free BSA (Catalog No. 7500804; Lot: 11G54001, LAMPIRE Biological Laboratories) in IH-3-2 media | no gross differentiated cell morphology evident | no gross differentiated cell morphology evident |  | 
2 | Sigma BSA: 2% Sigma BSA (catalog No. A2153; Lot: 061M1804V, Sigma Aldrich) used to supplement IH-3-2 media | morphological evidence of differentiated cells | morphological evidence of differentiated cells | significant upregulation | significant drop in confluency
